According to patent US20260242366A1, “STING AGONISTS CONTAINING HYDRAZIDE, HYDRAZINE, AND HYDROXAMIC ACID FUNCTIONAL GROUPS” (BioNTech SE, priority 2023, published 2026):
Several values for one entry are separate records, joined by “and”; a condition that tells them apart may be missing. Equal entries are not always repeated. Where two headings read alike, the source gives them in different places. Blank lines part the entries; values can stand above or below the molecule they belong to.

Key:
[1] = test system: STING signaling (IRF and NFKB-pathway activation) in THP1 Dual Cells; assay: THP-1 assay (THP1 Dual reporter cells, IRF / NFkB pathway activation); type: cell-based; conditions: for EC50: Homo sapiens, THP1 Dual cells
Description: THP1 Dual Cells™, were purchased from Invivogen (Cat. thpd-nfis), and used to determine the biological activity of the compounds on a molecular level and to determine downstream activation of STING signaling (IRF and NFKB-pathway activation). Briefly, cultured cells were seeded on the day of the experiment with a density of 1×10^5 cells per well (96-well format in RPMI supplemented with 25 mM HEPES, 10% heat inactivated FCS,). A serial dilution of the compounds was prepared and added to the cells for a total incubation time of 24 hours. The test items were tested in 8 concentrations to determine a dose-dependent activation of the NFKB and the IRF pathway. After 24 h cells were centrifuged and supernatants harvested for the detection of secreted alkaline phosphatase (measured by QUANTI-Blue™ detection solution; Cat. rep-qbs Invivogen) or lucia luciferase (measured by QUANTI-Luc™ reagent; Cat. rep-qlc1, Invivogen), respectively. The read outs were be performed according to the manufacturer's instructions. EC50 values were calculated using GraphPad Prism 9.

[2] = test system: HEK293 cells with a knocked-in STING receptor (IRF and IFNβ-pathway activation); assay: HEK STING assay with and without PFO (membrane permeabilization); type: cell-based; conditions: for EC50: Homo sapiens
[3] = Solubility in PBS and HEPES buffer; type: physicochemical; conditions: for solubility: aqueous buffer
Description: The primary differences are that Compound XX is less hydrophobic as a result of the introduction of oxazolyl heterocyclic ring in place of the pyrazolyl heterocyclic ring of Compound XV and as a result of the introduction of an imidazopyridine ring in place of the benzimidazole ring of Compound XV.

[4] = test system: PBMCs from healthy donors; assay: PBMC assay, dose-dependent cytokine induction; type: cell-based; conditions: Homo sapiens, 24 h
Description: Compounds I-A to IV were additionally tested on PBMCs from healthy donors to determine the dose-dependent cytokine induction. PBMCs from buffy coats were thawed on the day of the experiment and seeded with a density of 5×10^5 cells per well (96-well format, RPMI with 5% Human Serum+1% MEM Non-Essential Amino Acids+1% Sodium Pyruvate). In line with the experiment above, a serial dilution of the compounds was prepared and added to the cells for 24 hours. On the next days, cells were centrifuged and supernatants harvested for a cytokine readout based on a multiplex assay kit from mesoscale discovery (customized multiplex panel for the cytokines: IFNα2a, IFNβ, TNFα and IL6). Impact on cell viability was determined by CellTiter Glo2.0 from promega (Cat. G9241). Both experimental read outs were performed according to the manufacturer's instructions.

[5] = IRF pathway, read-out: THP-1 IRF EC50
[6] = NFkB pathway, read-out: THP-1 NFkB EC50
[7] = HEK293, read-out: HEK STING EC50 no PFO [nM]
[8] = HEK293, read-out: HEK STING EC50 with PFO [nM]
[9] = HEPES Buffer pH 7.0, read-out: Solubility HEPES Buffer pH 7.0
[10] = 24 h incubation, IRF pathway, read-out: THP-1 EC50 (IRF)
[11] = IFNα in supernatant, read-out: PBMC EC50 (μM) for IFNα
[12] = IFNβ in supernatant, read-out: PBMC EC50 (μM) for IFNβ

Structure (SMILES): CCn1nc(C)cc1C(=O)Nc1nc2cc(CO)cc(OC)c2n1C/C=C/Cn1c(NC(=O)c2cc(C)nn2CC)nc2cc(C(N)=O)cc(OCCCN3CCOCC3)c21 [Compound XL, (E)-2-(1-ethyl-3-methyl-1H-pyrazole-5-carboxamido)-1-(4-(2-(1-ethyl-3-methyl-1H-pyrazole-5-carboxamido)-5-(hydroxymethyl)-7-methoxy-1H-benzo[d]imidazol-1-yl)but-2-en-1-yl)-7-(3-morpholinopropoxy)-1H-benzo[d]imidazole-5-carboxamide]
- THP-1 IRF MEC ([1]; Activity w/o permeabilization): 78 nM
- THP-1 NFkB MEC ([1]; Activity w/o permeabilization): 78 nM
- EC50 [1, 5]: 221 nM
- EC50 [1, 6]: 149 nM
- HEK IFNβ MEC ([2]; Activity w/o permeabilization): 0.8 nM
- HEK IFNβ MEC ([2]; Activity with permeabilization): 4.0 nM
- EC50 ([2]; HEK293, Activity w/o permeabilization, read-out: HEK IRF EC50): 0.53 nM
- EC50 ([2]; HEK293, Activity with permeabilization, read-out: HEK IRF EC50): 1.11 nM
- EC50 [2, 7]: 2.7 nM
- EC50 [2, 8]: 2.7 nM

- Solubility versus Compound XV ([3]; Compound XX compared with Compound XV): slightly better solubility
- solubility [3, 9]: 11.5 µM and 10 µg/mL
- solubility ([3]; PBS Buffer pH 7.4, lower limit of quantitation 1 μM, read-out: Solubility PBS Buffer pH 7.4): 3.6 µM
- solubility ([3]; PBS Buffer pH 7.4, read-out: Solubility PBS Buffer pH 7.4): 3 µg/mL
Structure (SMILES): CCc1nc(C)oc1C(=O)Nc1nc2cc(C(N)=O)cnc2n1C/C=C/Cn1c(NC(=O)c2oc(C)nc2CC)nc2cc(C(N)=O)cc(OCCCN(C)N)c21 [Compound XX]

- Solubility PBS Buffer pH 7.4 ([3]; PBS Buffer pH 7.4): <LOQ
- Solubility PBS Buffer pH 7.4 ([3]; PBS Buffer pH 7.4, lower limit of quantitation 1 μM): <LOQ^#
- solubility [3, 9]: 5.9 µM and 5 µg/mL
Structure (SMILES): CCn1nc(C)cc1C(=O)Nc1nc2cc(C(N)=O)cc(OC)c2n1C/C=C/Cn1c(NC(=O)c2cc(C)nn2CC)nc2cc(C(N)=O)cc(OCCCN(C)N)c21 [Compound XV]

- EC50 [1, 10]: 9.74 nM
Structure (SMILES): CCn1nc(C)cc1C(=O)Nc1nc2cc(C(N)=O)cc(OC)c2n1C/C=C/Cn1c(NC(=O)c2cc(C)nn2CC)nc2cc(C(N)=O)cc(OCCCC(=O)N3CCN(N)CC3)c21 [I-K]
- EC50 [4, 11]: 0.302 µM
- EC50 [4, 12]: 0.234 µM

Structure (SMILES): CCn1nc(C)cc1C(=O)Nc1nc2cc(CN)cc(OC)c2n1C/C=C/Cn1c(NC(=O)c2cc(C)nn2CC)nc2cc(C(N)=O)cc(OCCCN3CCOCC3)c21 [Compound XLI, 1-[(2E)-4-[5-(Aminomethyl)-2-(1-ethyl-3-methyl-1H-pyrazole-5-amido)-7-methoxy-1H-1,3-benzodiazol-1-yl]but-2-en-1-yl]-2-(1-ethyl-3-methyl-1H-pyrazole-5-amido)-7-[3-(morpholin-4-yl)propoxy]-1H-1,3-benzodiazole-5-carboxamide]
- EC50 [1, 5]: 811 nM
- EC50 [1, 6]: 364 nM
- EC50 [2, 7]: 38 nM
- EC50 [2, 8]: 25 nM

Structure (SMILES): CCn1nc(C)cc1C(=O)Nc1nc2cc(C(N)=O)cc(OC)c2n1C/C=C/Cn1c(NC(=O)c2cc(C)nn2CC)nc2cc(C(N)=O)cc(OCCCC(=O)N(N)Cc3ccc(N)cc3)c21 [I-E]
- EC50 [4, 11]: 0.762 µM
- EC50 [4, 12]: 0.139 µM

Structure (SMILES): CCn1nc(C)cc1C(=O)Nc1nc2cc(C(N)=O)cc(OC)c2n1C/C=C/Cn1c(NC(=O)c2cc(C)nn2CC)nc2cc(C(N)=O)cc(OCCCN3CCOCC3)c21 [diABZI, reference compound]
- EC50 [1, 5]: 16 nM
- EC50 [1, 6]: 14 nM
- EC50 [2, 7]: 1.6 nM
- EC50 [2, 8]: 1.2 nM

- EC50 [1, 10]: 23.4 nM
Structure (SMILES): CCn1nc(C)cc1C(=O)Nc1nc2cc(C(N)=O)cc(OC)c2n1C/C=C/Cn1c(NC(=O)c2cc(C)nn2CC)nc2cc(C(N)=O)cc(OCCCC(=O)N(N)CCN)c21 [I-J]
- EC50 [4, 11]: 0.321 µM
- EC50 [4, 12]: 0.293 µM

Structure (SMILES): CCn1nc(C)cc1C(=O)Nc1nc2cc(C(N)=O)cc(OC)c2n1C/C=C/Cn1c(NC(=O)c2cc(C)nn2CC)nc2cc(C(N)=O)cc(OCCCC(=O)NN)c21 [I-A]
- EC50 [4, 11]: 0.334 µM
- EC50 [4, 12]: 1.25 µM

- EC50 [1, 10]: 84.9 nM
Structure (SMILES): CCn1nc(C)cc1C(=O)Nc1nc2cc(C(=O)NN)cc(OC)c2n1C/C=C/Cn1c(NC(=O)c2cc(C)nn2CC)nc2cc(C(N)=O)cc(OCCCN3CCOCC3)c21 [II-A]
- EC50 [4, 11]: 0.875 µM
- EC50 [4, 12]: 0.403 µM

Structure (SMILES): CCn1nc(C)cc1C(=O)Nc1nc2cc(C(N)=O)cc(OC)c2n1C/C=C/Cn1c(NC(=O)c2cc(C)nn2CC)nc2cc(C(N)=O)cc(OCCCC(=O)N(C)OC)c21 [I-I]
- EC50 [4, 11]: 0.41 µM
- EC50 [4, 12]: 0.212 µM

Structure (SMILES): CCc1nc(C)oc1C(=O)Nc1nc2cc(CO)cc(OC)c2n1C/C=C/Cn1c(NC(=O)c2oc(C)nc2CC)nc2cc(C(N)=O)cc(OCCCN3CCOCC3)c21 [Compound XLII, (E)-N-(5-carbamoyl-1-(4-(2-(4-ethyl-2-methyloxazole-5-carboxamido)-5-(hydroxymethyl)-7-methoxy-1H-benzo[d]imidazol-1-yl)but-2-en-1-yl)-7-(3-morpholinopropoxy)-1H-benzo[d]imidazol-2-yl)-4-ethyl-2-methyloxazole-5-carboxamide]
- EC50 [1, 5]: 333 nM
- EC50 [1, 6]: 290 nM
- EC50 [2, 7]: 26 nM
- EC50 [2, 8]: 14 nM

Structure (SMILES): CCn1nc(C)cc1C(=O)Nc1nc2cc(C(N)=O)cc(OC)c2n1C/C=C/Cn1c(NC(=O)c2cc(C)nn2CC)nc2cc(C(N)=O)cc(OCCCC(=O)NNCc3ccc(N)cc3)c21 [I-F]
- EC50 [4, 12]: 0.209 µM

Structure (SMILES): CCn1nc(C)cc1C(=O)Nc1nc2cc(C(N)=O)cc(OC)c2n1C/C=C/Cn1c(NC(=O)c2cc(C)nn2CC)nc2cc(C(N)=O)cc(OCCCC(=O)NO)c21 [I-G]
- EC50 [4, 11]: 2.02 µM
- EC50 [4, 12]: 0.311 µM

Structure (SMILES): CCn1nc(C)cc1C(=O)Nc1nc2cc(C(N)=O)cc(OC)c2n1C/C=C/Cn1c(NC(=O)c2cc(C)nn2CC)nc2cc(C(N)=O)cc(OCCCC(=O)N(C)N)c21 [I-B]
- EC50 [4, 12]: 0.403 µM

- EC50 [1, 10]: 267 nM
Structure (SMILES): CCn1nc(C)cc1C(=O)Nc1nc2cc(C(=O)N(C)N)cc(OC)c2n1C/C=C/Cn1c(NC(=O)c2cc(C)nn2CC)nc2cc(C(N)=O)cc(OCCCN3CCOCC3)c21 [II-C]
- EC50 [4, 11]: 1.15 µM
- EC50 [4, 12]: 0.91 µM

Structure (SMILES): CCn1nc(C)cc1C(=O)Nc1nc2cc(C(N)=O)cc(OC)c2n1C/C=C/Cn1c(NC(=O)c2cc(C)nn2CC)nc2cc(C(N)=O)cc(OCCCC(=O)N(C)O)c21 [I-H]
- EC50 [4, 11]: 0.665 µM
- EC50 [4, 12]: 0.249 µM

Structure (SMILES): CCn1nc(C)cc1C(=O)Nc1nc2cc(C(N)=O)cc(OC)c2n1C/C=C/Cn1c(NC(=O)c2cc(C)nn2CC)nc2cc(C(N)=O)cc(OCCCC(=O)NNC)c21 [I-C]
- EC50 [4, 12]: 1.1 µM
